Reference: US6737383B1, “Herbicidal oxadiazolidines” (priority 1999, dated 2004)

Key:
purple nutsedge = assay: Test B pre/postemergence purple nutsedge; format: in vivo, Cyperus rotundus
How it was run: (§1)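 Herbicidal effect was estimated by eye on a ten-point control scale after plants spent twelve to sixteen days in a greenhouse following soil or foliar treatment. Foliar sprays targeted plants at one to four leaves; all doses were formulated in a non-phytotoxic solvent with surfactant.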

giant foxtail = assay: Test B pre/postemergence giant foxtail; format: in vivo, Setaria faberii
How it was run: as §1

wild oat = assay: Test B pre/postemergence wild oat; format: in vivo, Avena fatua
How it was run: as §1

velvetleaf = assay: Test B pre/postemergence velvetleaf; format: in vivo, Abutilon theophrasti
How it was run: as §1

bedstraw = assay: Test B pre/postemergence bedstraw; format: in vivo, Galium aparine
How it was run: as §1

cocklebur = assay: Test B pre/postemergence cocklebur; format: in vivo, Xanthium strumarium
How it was run: as §1

surinam grass = assay: Test B pre/postemergence surinam grass; format: in vivo, Brachiaria decumbens
How it was run: as §1

wheat = assay: Test B pre/postemergence wheat; format: in vivo, Triticum aestivum
How it was run: as §1

pigweed = assay: Test B pre/postemergence pigweed; format: in vivo, Amaranthus retroflexus
How it was run: as §1

sugar beet = assay: Test B pre/postemergence sugar beet; format: in vivo, Beta vulgaris
How it was run: as §1

morningglory = assay: Test B pre/postemergence morningglory; format: in vivo, Ipomoea hederacea
How it was run: as §1

crabgrass = assay: Test B pre/postemergence crabgrass; format: in vivo, Digitaria sanguinalis
How it was run: as §1

blackgrass = assay: Test B pre/postemergence blackgrass; format: in vivo, Alopecurus myosuroides
How it was run: as §1

corn = assay: Test B pre/postemergence corn; format: in vivo, Zea mays
How it was run: as §1

rape = assay: Test B pre/postemergence rape; format: in vivo, Brassica napus
How it was run: as §1

soybean = assay: Test B pre/postemergence soybean; format: in vivo, Glycine max
How it was run: as §1

[1] = Postemergence, Rate 62 g/ha, scale of 0 to 10, 0 is no effect, 10 is complete control
[2] = Postemergence, Rate 125 g/ha, scale 0 to 10, 0 is no effect, 10 is complete control
[3] = Preemergence, Rate 62 g/ha, scale 0 to 10 (0 no effect, 10 complete control)
[4] = Preemergence, Rate 125 g/ha, scale 0 to 10, 0 is no effect, 10 is complete control
[5] = Preemergence, Rate 500 g/ha, scale of 0 to 10 where 0 is no effect and 10 is complete control
[6] = Rate 250 g/ha, Postemergence, scale of 0 to 10 where 0 is no effect and 10 is complete control
[7] = Postemergence, Rate 500 g/ha, scale 0 to 10, 0 is no effect, 10 is complete control

## CCC(=O)Cn1c(=O)on(C(=O)N(c2ccc(Cl)cc2)C(C)C)c1=O [Compound 553]
Purple nutsedge; [1]
  Nutsedge plant response rating: 0
Purple nutsedge; [2]
  Nutsedge plant response rating: 0
Purple nutsedge; [3]
  Nutsedge plant response rating: 0
Purple nutsedge; [4]
  Nutsedge plant response rating: 0
Purple nutsedge; Preemergence, Rate 250 g/ha
  Nutsedge plant response rating (0 to 10 scale): 0
Purple nutsedge; [5]
  Nutsedge plant response rating: 0
Purple nutsedge; [6]
  Plant response rating, Nutsedge: 0
Giant foxtail; [1]
  Giant foxtail plant response rating: 0
Giant foxtail; [2]
  Giant foxtail plant response rating: 7
Giant foxtail; [7]
  Plant response rating, Giant foxtail: 7
Giant foxtail; [3]
  Giant foxtail plant response rating: 10
Giant foxtail; [4]
  Giant foxtail plant response rating: 10
Giant foxtail; Preemergence, Rate 250 g/ha
  Giant foxtail plant response rating (0 to 10 scale): 10
Giant foxtail; [5]
  Giant foxtail plant response rating: 10
Giant foxtail; [6]
  Plant response rating, Giant foxtail: 6
Wild oat; [1]
  Wild oats plant response rating: 0
Wild oat; [7]
  Plant response rating, Wild oats: 2
Wild oat; [3]
  Wild oats plant response rating: 0
Wild oat; [4]
  Wild oats plant response rating: 0
Wild oat; Preemergence, Rate 250 g/ha
  Wild oats plant response rating (0 to 10 scale): 3
Wild oat; [6]
  Plant response rating, Wild oats: 2
velvetleaf; [3]
  Velvetleaf plant response rating: 0
velvetleaf; [4]
  Velvetleaf plant response rating: 0
velvetleaf; Preemergence, Rate 250 g/ha
  Velvetleaf plant response rating (0 to 10 scale): 0
velvetleaf; [5]
  Velvetleaf plant response rating: 2
velvetleaf; [6]
  Plant response rating, Velvetleaf: 5
bedstraw; [1]
  Bedstraw plant response rating: 0
bedstraw; [2]
  Bedstraw plant response rating: 2
bedstraw; [7]
  Plant response rating, Bedstraw: 7
bedstraw; [3]
  Bedstraw plant response rating: 0
bedstraw; [4]
  Bedstraw plant response rating: 0
bedstraw; Preemergence, Rate 250 g/ha
  Bedstraw plant response rating (0 to 10 scale): 2
bedstraw; [5]
  Bedstraw plant response rating: 10
bedstraw; [6]
  Plant response rating, Bedstraw: 2
cocklebur; [1]
  Cocklebur plant response rating: 0
cocklebur; [7]
  Plant response rating, Cocklebur: 2
cocklebur; [4]
  Cocklebur plant response rating: 0
cocklebur; Preemergence, Rate 250 g/ha
  Cocklebur plant response rating (0 to 10 scale): 0
cocklebur; [5]
  Cocklebur plant response rating: 10
cocklebur; [6]
  Plant response rating, Cocklebur: 0
Surinam grass; [1]
  B. signalgrass plant response rating: 0
Surinam grass; [2]
  B. signalgrass plant response rating: 0
Surinam grass; [7]
  Plant response rating, B. signalgrass: 5
Surinam grass; [3]
  B. signalgrass plant response rating: 6
Surinam grass; [4]
  B. signalgrass plant response rating: 9
Surinam grass; Preemergence, Rate 250 g/ha
  B. signalgrass plant response rating (0 to 10 scale, 0 is no effect, 10 is complete control): 9
Surinam grass; [5]
  B. signalgrass plant response rating: 8
Surinam grass; [6]
  Plant response rating, B. signalgrass: 3
wheat; [1]
  Wheat plant response rating: 0
wheat; [7]
  Plant response rating, Wheat: 3
wheat; [4]
  Wheat plant response rating: 0
wheat; Preemergence, Rate 250 g/ha
  Wheat plant response rating (0 to 10 scale): 0
wheat; [6]
  Plant response rating, Wheat: 0
pigweed; [1]
  Redroot pigweed plant response rating: 0
pigweed; [7]
  Plant response rating, Redroot pigweed: 0
pigweed; [3]
  Redroot pigweed plant response rating: 0
pigweed; [4]
  Redroot pigweed plant response rating: 7
pigweed; Preemergence, Rate 250 g/ha
  Redroot pigweed plant response rating (0 to 10 scale): 9
pigweed; [6]
  Plant response rating, Redroot pigweed: 0
Sugar beet; [1]
  Sugarbeets plant response rating: 0
Sugar beet; [7]
  Plant response rating, Sugarbeets: 2
Sugar beet; [3]
  Sugarbeets plant response rating: 0
Sugar beet; [4]
  Sugarbeets plant response rating: 3
Sugar beet; Preemergence, Rate 250 g/ha
  Sugarbeets plant response rating (0 to 10 scale): 3
Sugar beet; [6]
  Plant response rating, Sugarbeets: 0
morningglory; [1]
  Morningglory plant response rating: 0
morningglory; [2]
  Morningglory plant response rating: 0
morningglory; [7]
  Plant response rating, Morningglory: 0
morningglory; [3]
  Morningglory plant response rating: 0
morningglory; [4]
  Morningglory plant response rating: 0
morningglory; Preemergence, Rate 250 g/ha
  Morningglory plant response rating (0 to 10 scale): 0
morningglory; [5]
  Morningglory plant response rating: 2
morningglory; [6]
  Plant response rating, Morningglory: 0
crabgrass; [1]
  Crabgrass plant response rating: 0
crabgrass; [2]
  Crabgrass plant response rating: 3
crabgrass; [7]
  Plant response rating, Crabgrass: 9
crabgrass; [3]
  Crabgrass plant response rating: 10
crabgrass; [4]
  Crabgrass plant response rating: 9
crabgrass; Preemergence, Rate 250 g/ha
  Crabgrass plant response rating (0 to 10 scale): 10
crabgrass; [5]
  Crabgrass plant response rating: 10
crabgrass; [6]
  Plant response rating, Crabgrass: 8
blackgrass; [1]
  Blackgrass plant response rating: 0
blackgrass; [2]
  Blackgrass plant response rating: 0
blackgrass; [7]
  Plant response rating, Blackgrass: 7
blackgrass; [3]
  Blackgrass plant response rating: 7
blackgrass; [4]
  Blackgrass plant response rating: 7
blackgrass; Preemergence, Rate 250 g/ha
  Blackgrass plant response rating (0 to 10 scale): 7
blackgrass; [6]
  Plant response rating, Blackgrass: 3
corn; [1]
  Corn plant response rating: 0
corn; [2]
  Corn plant response rating: 0
corn; [7]
  Plant response rating, Corn: 0
corn; [3]
  Corn plant response rating: 0
corn; [4]
  Corn plant response rating: 0
corn; Preemergence, Rate 250 g/ha
  Corn plant response rating (0 to 10 scale): 0
corn; [5]
  Corn plant response rating: 3
corn; [6]
  Plant response rating, Corn: 0
rape; [1]
  Rape plant response rating: 2
rape; [2]
  Rape plant response rating: 6
rape; [3]
  Rape plant response rating: 0
rape; [4]
  Rape plant response rating: 3
rape; Preemergence, Rate 250 g/ha
  Rape plant response rating (0 to 10 scale): 3
rape; [6]
  Plant response rating, Rape: 7
soybean; [1]
  Soybean plant response rating: 1
soybean; [3]
  Soybean plant response rating: 0
soybean; [4]
  Soybean plant response rating: 0
soybean; Preemergence, Rate 250 g/ha
  Soybean plant response rating (0 to 10 scale): 0
soybean; [5]
  Soybean plant response rating: 3
soybean; [6]
  Plant response rating, Soybean: 3
